Data reported in patent US20240269304A1, “BCL-XL INHIBITOR ANTIBODY-DRUG CONJUGATES AND METHODS OF USE THEREOF” (Novartis AG, priority 2020, published 2024).

Tests used:
EBC-1 xenografts = assay: In vivo testing of EpCAM ADCs with paclitaxel, EBC-1 xenografts (Example 17); design: species or system female nude mice; details: Paclitaxel Alone
Procedure: EBC-1 cells were cultured at 37° C. (atmosphere of 5% CO2) in DMEM (Gibco 11965-084) supplemented with 10% FBS (HI-FBS #134K19, Tet-free). Treatment with 0.25% Trypsin (Gibco 25200-056) was used for sub-culturing. To establish EBC-1 xenografts, cells were harvested and re-suspended in a 1:1 v/v mixture of phosphate buffered saline and Matrigel. A total of 5×10^6 cells in a volume of 150 μL were injected subcutaneously in the flanks of female nude mice (Charles River, USA). Tumor growth was monitored regularly post cell inoculation and animals were randomized into treatment groups (n=8) with a mean tumor volume of about 210 mm^3. EpCAM-DANAPA-L11C-P25 ADC, 3207-DANAPA-L11C-P25 isotype control ADC, and EpCAM-DANAPA CysMab control antibody were all dosed in combination with paclitaxel (LC Laboratories, Woburn, MA, Cat #: P-9600) as indicated in FIG. 13. The ADCs and CysMab antibody were administered intravenously (i.v.) once at the start of treatment at 30 mg/kg. Paclitaxel was administered i.v. once at 12.5 mg/kg, 24 h after the ADC or CysMab dose. All reagents were dosed at 10 mL/kg based on the individual mouse body weight. The ADCs and CysMab were formulated at 3 mg/mL in PBS on the day of treatment. Paclitaxel was reconstituted in 50% Ethanol+50% Cremophor EL (Kolliphor EL) at a concentration of 6 mg/mL, and then further diluted to 1.25 mg/mL with sterile saline prior to administration on the day of treatment.
Tumor volume data were analyzed for statistical difference relative to the EpCAM-DANAPA-L 11C-P25 ADC+ paclitaxel combination group. Unpaired two-tailed T-tests were used to make comparisons between groups.
As a measure of efficacy, %T/C values were calculated according to the formula: […]
Tumor regression was calculated according to the formula: […]
Δtumor volumes represent mean tumor volumes on the measurement day minus the mean tumor volume at the start of treatment. The Δtumor volume control value specified above refers to mean tumor volume changes in the vehicle group.

corl279 = assay: In vitro ADC activity with combination partners (Venetoclax, Topotecan), CellTiter-Glo 5 days, corl279 (Example 13); format: cell-based; details: single agent
Procedure: (§1) Antibody drug conjugates (ADCs) targeting IgG, B7H3, CD56, DLK1, DLL3, EpCAM, and SEZ6 were tested against cancer cell lines obtained from ATCC (American Type Culture Collection) or from other commercial cell line vendors (cor1279, ncih1436, ncih146, ncih211, ncih524). The cells were cultured in media that is optimal for their growth at 5% CO2, 37° C. in a tissue culture incubator. Prior to seeding for the proliferation assay, the cells were split at least 2 days before the assay to ensure optimal growth density. On the day of seeding, cells were lifted off tissue culture flasks using 0.25% trypsin. Cell viability and cell density were determined using a cell counter (Vi-Cell XR Cell Viability Analyzer, Beckman Coulter). Cells with higher than 85% viability were seeded in white clear bottom 384-well plates (Greiner cat #781098) at a density of 1000 cells per well in 50 μL of standard growth media. Plates were incubated at 37° C. overnight in a tissue culture incubator.
(§2) The ADCs were prepared in standard phosphate buffered solution to desired concentrations. A series of 10 dilutions were made for each ADC. The prepared drug treatments were then added to the cells resulting in final concentrations of 300 nM to 0.015 nM. Combination partners (Venetoclax and Topotecan) were added at fixed concentrations. Acoustic transfer devices (Echo525, Echo550, Beckman Coulter) were used to add the ADCs or combination partners to the cells. Each treatment was tested in triplicate assay plates. Plates were incubated at 37° C. overnight or for 5 days in a tissue culture incubator. The ability of the ADCs to inhibit cell proliferation and survival was assessed using the Promega CellTiter-Glo® proliferation assay. Plates were incubated at room temperature for 20 minutes to stabilize luminescent signals prior to reading using a multimode plate reader (Pherastar, BMG). Luminescent counts of untreated cells were taken the day after seeding (Day 0 readings), and after 5 days of treatment (Day 5 readings). The Day 5 readings of the untreated cells were compared to the Day 0 readings. Assays with at least one cell doubling during the incubation period were considered valid. To evaluate the effect of the drug treatments, luminescent counts from wells containing untreated cells (100% viability) were used to normalize treated samples. The concentrations of treatment required to inhibit 50% of cell growth or survival ([…]) were calculated using a four parameter logistic regression equation.

ncih1436 = assay: In vitro ADC activity with combination partners, CellTiter-Glo 5 days, ncih1436 (Example 13); format: cell-based; details: single agent
Procedure: as §1, §2

ncih146 = assay: In vitro ADC activity with combination partners, CellTiter-Glo 5 days, ncih146 (Example 13); format: cell-based; details: single agent
Procedure: as §1, §2

ncih211 = assay: In vitro ADC activity with combination partners, CellTiter-Glo 5 days, ncih211 (Example 13); format: cell-based; details: single agent
Procedure: as §1, §2

ncih524 = assay: In vitro ADC activity with combination partners, CellTiter-Glo 5 days, ncih524 (Example 13); format: cell-based; details: single agent
Procedure: as §1, §2

[1] = system: H1650 human non-small cell lung carcinoma (NSCLC) model; assay: In vivo efficacy of EGFR2-Bcl-xL inhibitor ADC in combination with docetaxel, H1650 xenografts (Example 15); design: species or system female SCID mice; details: Vehicle iv + docetaxel 7.5 mg/kg qdx1 iv 24 h later
Procedure: H1650 cells were cultured at 37° C. in an atmosphere of 5% CO2 in air in RPMI1640 (BioConcept Ltd. Amimed, #1-41F01-1) supplemented with 10% FCS (BioConcept Ltd. Amimed, #2-01F30-1), 2 mM L-glutamine (BioConcept Ltd. Amimed, #5-10K00-H) and 1 mM sodium pyruvate (BioConcept Ltd. Amimed, #5-60F00-H), 10 mM HEPES (Gibco #11560496) and D-glucose 1.25g/500 mL medium (Gibco, #A24940-01). To establish H1650 xenografts, cells were harvested and re-suspended in HBSS (Gibco, #14175)/Matrigel (Corning #354234) (1:1 v/v) before injecting 100 μL containing 5×10^6 cells subcutaneously in the flanks of female SCID mice (Taconic, Europe). Tumor growth was monitored regularly post cell inoculation and animals were randomized into treatment groups (n=6) with a mean tumor volume of about 150 mm^3. The ADCs were administered intravenously (i.v.) once at the start of treatment at 30 mg/kg in combination with 7.5 mg/kg docetaxel (Zentiva: 1 ml/20 mg) which was administered i.v. once 24 h after the ADCs. Doses were adjusted to individual mouse body weights. The i.v. dose volume was 10 ml/kg and each ADC was dissolved in 0.9% (w/v) NaCl in water and the docetaxel stock solution was diluted to appropriate concentration with 5% (w/v) sterile glucose solution prior to administration.
Tumor volume data on day 21 and 28 post treatment initiation were analyzed for statistical difference relative to vehicle control group and EGFR-Bcl-xLi (L109A-P1) ADC, using one way ANOVA post hoc Tukey's multiple comparisons test (Indigo Software). Results are presented as mean±SEM.
As a measure of efficacy the %T/C value was calculated on day 21 according to:
(Δtumor volume treated/Δtumor volume control)*100 Tumor regression was calculated according to:
−(Δtumor volume treated/tumor volume treated at start)*100
Where Δtumor volumes represent the mean tumor volume on the evaluation day minus the mean tumor volume at the start of the experiment.

With `CC(=O)O[C@H]1C(=O)[C@@]2(C)[C@H]([C@H](OC(=O)c3ccccc3)[C@]3(O)C[C@H](OC(=O)[C@H](O)[C@@H](NC(=O)c4ccccc4)c4ccccc4)C(C)=C1C3(C)C)[C@]1(OC(C)=O)CO[C@@H]1C[C@@H]2O` [Paclitaxel, paclitaxel] the “% T/C (Day of Evaluation)” value (EBC-1 xenografts; Day 10) was 34%, the “ΔTumor volume (mm^3 ± SEM) (Day of Evaluation)” value (EBC-1 xenografts; Day 10) was 510.8 ± 158.5 mm^3 and the “Significance vs EpCAM-DANAPA-L11C-P25 ADC on Day 9 (Day of Evaluation)” value (EBC-1 xenografts; Day 10, unpaired two-tailed T-test vs EpCAM-DANAPA-L11C-P25 ADC + paclitaxel group) was “P = 0.0014”. For the same molecule, the “Complete Responders (Day of Evaluation)” value (EBC-1 xenografts; Day 32, tumors regressed to 0 mm^3) was 0/8.
For `CC[C@@]1(O)C(=O)OCc2c1cc1n(c2=O)Cc2cc3c(CN(C)C)c(O)ccc3nc2-1` [Topotecan, topotecan], the GI50 (corl279; Homo sapiens, COR-L279, 120 h) was 0.0152 µM, the “GI Amax corl279” value (corl279) was −95.95 and the GI50 (ncih1436; Homo sapiens, NCI-H1436, 120 h) was 0.515 µM. The “GI Amax ncih1436” value (ncih1436) was −23.22, the GI50 (ncih146; Homo sapiens, NCI-H146, 120 h) was 0.00304 µM and the “GI Amax ncih146” value (ncih146) was −91.77. The GI50 (ncih211; Homo sapiens, NCI-H211, 120 h) was 0.0125 µM, the “GI Amax ncih211” value (ncih211) was −89.36 and the GI50 (ncih524; Homo sapiens, NCI-H524, 120 h) was 0.00827 µM. The “GI Amax ncih524” value (ncih524) was −83.85.
For `CC1(C)CCC(CN2CCN(c3ccc(C(=O)NS(=O)(=O)c4ccc(NCC5CCOCC5)c([N+](=O)[O-])c4)c(Oc4cnc5[nH]ccc5c4)c3)CC2)=C(c2ccc(Cl)cc2)C1` [Venetoclax, venetoclax], the GI50 (corl279) was greater than 10 µM, the “GI Amax corl279” value (corl279) was 98.71 and the GI50 (ncih1436) was 4.92 µM. For the same molecule, the “GI Amax ncih1436” value (ncih1436) was 13, the GI50 (ncih146) was 0.789 µM and the “GI Amax ncih146” value (ncih146) was −16.83. The GI50 (ncih211) was 3.92 µM, the “GI Amax ncih211” value (ncih211) was 30.85 and the GI50 (ncih524) was greater than 10 µM. The “GI Amax ncih524” value (ncih524) was 105.21.
For `CC(=O)O[C@@]12CO[C@@H]1C[C@H](O)[C@@]1(C)C(=O)[C@H](O)C3=C(C)[C@@H](OC(=O)[C@H](O)[C@@H](NC(=O)OC(C)(C)C)c4ccccc4)C[C@@](O)([C@@H](OC(=O)c4ccccc4)[C@H]21)C3(C)C` [docetaxel], the “Response on day 21 T/C (%)” value ([1]; day 21) was 51%, the “ΔTumor volume (mm^3) D21” value ([1]; day 21, mean) was 396.59 mm^3 and the “Maximum regression (day)” value ([1]; maximum on D7) was −1. For the same molecule, the “Significance On D21 vs Isotype-DANAPA-L109A-P1-ADC group” value ([1]; vs IgG CysMab DANAPA-L109A-P1 ADC + docetaxel, printed with (growth)) was “P < 0.05 (growth)”.
